The text below walks through data of PubChem BioAssay (NCI).

Test in all cases: inhibition of tumour cell growth, NCI panel, 48 h
Assay [1] relates to HCC-2998 colon.
The test system of assay [2] is M14 melanoma.
Assay [3] has as its system OVCAR-5 ovarian.
Assay [4] has as its system RPMI-8226 leukemia.
For assay [5], the system named is SK-MEL-2 melanoma.
The subject of assay [6] is SK-MEL-5 melanoma.
For assay [7], the system named is SR leukemia.
In assay [8] the test system is UO-31 renal.
Assay [9] relates to OVCAR-8 ovarian.

Structures are written as SMILES.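 Briefly, cells in 96-well plates were exposed to five compound concentrations for 48 h, and endpoints were estimated by linear interpolation. The concentration for full growth arrest is given as TGI.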 Bounds are passed on as bounds.

In the case of `CCc1cccc(C(C)C)c1C1C(=O)C(=O)N(c2nc3ccccc3s2)C(=O)C1=O`, the TGI in [1], in assay [2], in [3], in assay [4], in [5] and in assay [6] was more than 100 µM in each case. Moreover, the TGI in assay [7] and in [8] was more than 100 µM in each case.

In the case of `S=C(N/N=C/c1ccccc1)NC1CC(c2ccccc2)Oc2ccccc21` (stereo not given), the TGI in assay [1] is more than 100 µM; in assay [2], more than 100 µM; in [3] it was more than 100 µM; in assay [9] it was more than 100 µM; in assay [5], more than 100 µM; in assay [6], 65.8 µM. The TGI in assay [7] and in [8] was more than 100 µM throughout.

In the case of `COc1ccc(C2Oc3cc(OC)c(O)cc3[C@@H]2C)cc1` (stereo not given in full), the TGI was more than 100 µM in assay [1]; 51.2 µM in assay [2]; more than 100 µM in [3]; 56.6 µM in [9]; 58.2 µM in assay [4]; more than 100 µM in assay [5]. The TGI in assay [6] is more than 100 µM; in assay [8] it was 79.3 µM.

Regarding `Nc1n[nH]c(=O)c2c1c(Br)cn2C1OC(CO)C(O)C1O` (stereo not given), the TGI turned out to be 24.7 µM in assay [1]; 30.1 µM in [2]; 44 µM in [3]; 6.23 µM in assay [9]; 22.5 µM in assay [4]; 41.4 µM in [5]. Besides, the TGI in [6] is 45.4 µM; in assay [7], 14.3 µM; in [8], 26.8 µM.

Take `CC(=O)/C=C\C(=O)NNS(=O)(=O)c1ccc(C)cc1`: the TGI in assay [1], in [2], in assay [3], in assay [9], in [4] and in assay [5] was more than 100 µM throughout. In addition, the TGI in assay [6], in [7] and in assay [8] was more than 100 µM in each case.

In the case of `CC(=O)OC12CCCCC1C1(CCCC1)NC2=O` (stereo not given), the TGI in assay [1], in assay [2], in [3], in assay [9], in assay [4] and in [7] was more than 100 µM throughout. Besides, the TGI in [8] was more than 100 µM.

Turning to `CC/C(=C(\c1ccccc1)c1ccc(OCC[N+](C)(C)C)cc1)c1ccccc1`, the TGI in assay [1] came to 34.2 µM; in assay [2], 30.1 µM; in assay [9], 37.9 µM; in assay [4] it was 28.8 µM; in assay [5], 30.2 µM; in assay [6], 16.4 µM. Besides, the TGI in assay [8] came to 38.7 µM.

With `O=C1[C@@H]2C3C=CC([C@H]4C(=O)N(CO)C(=O)[C@@H]34)[C@@H]2C(=O)N1CO`, the TGI in [1] is more than 100 µM; in assay [2] it was more than 75.2 µM; in assay [3], more than 100 µM; in [9] it was 97.6 µM; in assay [4], 49.5 µM; in assay [5] it was more than 100 µM. For the same compound, the TGI in assay [6] and in assay [8] was more than 100 µM each time.

Take `Nc1cc2[nH]c(=O)c3cc(Cl)ccc3c2cc1Cl`: the TGI in assay [1] is more than 100 µM; in assay [2], more than 100 µM; in [3], more than 100 µM; in assay [9] it was 13.5 µM; in assay [4], more than 100 µM; in [5] it was more than 100 µM. Also, the TGI in assay [6] is 27 µM; in assay [7], more than 100 µM; in [8] it was 30.5 µM.

With `COC(=O)c1c(OC(=O)c2ccccc2)noc1CC(=O)OC1C=CCCC1` (stereo not given), the TGI was more than 100 µM in assay [1]; more than 100 µM in assay [2]; more than 100 µM in assay [9]; more than 100 µM in [4]; more than 100 µM in assay [5]; 81.7 µM in [6]. The TGI in [7] and in assay [8] was more than 100 µM throughout.

For `C[N+](C)(C)CC(=O)N/N=C(\C(=O)Nc1ccc(Cl)cc1)C1C(=O)N(c2ccccc2)N=C1N` (stereo not given), the TGI in assay [1], in [2], in assay [3], in [9], in assay [4] and in assay [5] was more than 100 µM in each case. Further, the TGI in assay [6] and in assay [8] was more than 100 µM each time.

Consider `COc1ccccc1C1C(Cl)C(=O)N1NC(=O)Cc1ccccc1` (stereo not given), for which the TGI in assay [1], in assay [2], in assay [3], in [9], in [4] and in assay [5] was more than 100 µM throughout. For the same compound, the TGI in assay [6], in assay [7] and in assay [8] was more than 100 µM each time.

Regarding `O=[N+]([O-])c1ccc(-c2ccc(C3=Nn4c(nnc4-c4ccc(Cl)cc4)SC3)o2)cc1`, the TGI in assay [1], in assay [2], in [3], in assay [9], in assay [4] and in assay [5] was more than 100 µM throughout. Moreover, the TGI in assay [6], in assay [7] and in assay [8] was more than 100 µM in each case.

`CCN(CC)CC(C(=O)Nc1c(C)cccc1C)/C(C)=N/NC(N)=S` (stereo not given): the TGI in assay [1], in assay [2], in assay [3], in assay [9], in assay [4] and in [5] was more than 100 µM each time. The TGI in assay [6] and in assay [8] was more than 100 µM each time.

Regarding `CCOc1ccccc1Nc1nc(C)c(C(=O)CC(=O)C(=O)Nc2ccccc2)s1`, the TGI in [1], in [2], in assay [3], in assay [9], in assay [5] and in assay [6] was more than 100 µM throughout. In addition, the TGI in assay [7] and in [8] was more than 100 µM throughout.

Consider `COc1ccc2nccc(C3OC(=O)N4CCC(=O)CC34)c2c1` (stereo not given), for which the TGI in assay [2], in assay [3], in [9], in assay [4], in assay [5] and in [6] was more than 100 µM in each case. Moreover, the TGI in [7] and in assay [8] was more than 100 µM in each case.

Consider `COC(=O)C1CCC2(CC1)NC(=O)NC2=O` (stereo not given), for which the TGI in assay [1], in assay [2], in [3], in assay [9], in assay [4] and in assay [5] was more than 100 µM in each case. In addition, the TGI in assay [6], in assay [7] and in [8] was more than 100 µM each time.

Turning to `O=S(O)CCCSSCCCCSSCCCS(=O)O`, the TGI in assay [1], in assay [2], in assay [3], in [9], in assay [5] and in assay [6] was more than 100 µM each time. This compound had a TGI in assay [8] of more than 100 µM.

With `COc1cc(C2C(C(=O)Nc3ccc(Cl)c(Cl)c3)=C(C)NC(C)=C2C(=O)Nc2ccc(Cl)c(Cl)c2)ccc1O`, the TGI in assay [1] stood at 23.5 µM; in [2] it was 26.9 µM; in assay [3], 38.8 µM; in assay [9], 40.3 µM; in assay [4], 30.1 µM; in [5] it was 23.5 µM. For the same compound, the TGI turned out to be 25.5 µM in assay [6] and 25.6 µM in [8].

With `Cc1cn2cc(-c3ccncc3)nc2s1`, the TGI in assay [1] is more than 100 µM; in assay [2] it was more than 100 µM; in [3], more than 100 µM; in [9], more than 100 µM; in assay [4], more than 90.2 µM; in assay [5], more than 100 µM. For the same compound, the TGI in assay [6] and in [8] was more than 100 µM in each case.

As to `COc1cc(/C=C/C(=O)C(C)(C)C)cc(OC)c1OC`, the TGI in [1], in [2], in assay [3], in assay [9], in [4] and in assay [5] was more than 100 µM in each case. The TGI in assay [6], in assay [7] and in assay [8] was more than 100 µM throughout.

`CCCCCC1C2C(=O)NC(=O)C1C(=O)NC2=O` (stereo not given): the TGI in assay [1], in [2], in assay [3], in [9], in assay [4] and in [5] was more than 100 µM throughout. Also, the TGI in assay [6] and in assay [8] was more than 100 µM throughout.

As to `CC(C)CCC[C@@H](C)[C@H]1CC[C@H]2[C@@H]3CC=C4CC(OCCCCN(O)CCCSC5OC(CO)C(O)C(O)C5O)CC[C@]4(C)[C@H]3CC[C@]12C` (stereo not given in full), the TGI in assay [2] was 56.3 µM; in assay [3], more than 100 µM; in assay [9] it was more than 100 µM; in [4] it was more than 100 µM; in assay [5], 92.1 µM; in assay [6] it was more than 100 µM. In addition, the TGI in [7] and in assay [8] was more than 100 µM in each case.

In the case of `O=c1c2ccccc2nc(-c2ccccc2Cl)n1NC1OC(CO)C(O)C(O)C1O` (stereo not given), the TGI in assay [1], in assay [2], in assay [3], in [9], in [4] and in [5] was more than 100 µM throughout. Moreover, the TGI in assay [6] and in assay [8] was more than 100 µM throughout.

As for `CC(=O)NC1C(=O)CC(c2ccccc2)N(C)C1c1ccccc1` (stereo not given), the TGI in [1], in assay [2], in assay [3], in assay [9], in assay [5] and in assay [6] was more than 100 µM each time. Further, the TGI in assay [7] and in assay [8] was more than 100 µM each time.

Consider `Cc1nc2c(=O)n(C)c(=O)nc-2n(-c2ccc(Cl)cc2)c1C`, for which the TGI in [1], in assay [2], in [3], in assay [9], in assay [5] and in assay [6] was more than 100 µM in each case. Further, the TGI in assay [8] is more than 100 µM.

Consider `CC1CCCC2(O1)OC1CC(=O)OC1C1=C2C(=O)c2ccccc2C1=O` (stereo not given), for which the TGI in assay [1] stood at 8.7 µM; in [2], 7.89 µM; in [3], 35 µM; in assay [9], 7.06 µM; in assay [4], 4.27 µM; in assay [5], 6.11 µM. Further, the TGI was 4.14 µM in [6] and 5.41 µM in assay [8].

Take `O=C1OC2C(O)COC2(OCc2c[nH]c3ccccc23)C1O` (stereo not given) (tested in a mixture with another compound): the TGI in assay [2], in assay [3], in [9], in assay [4], in assay [5] and in [6] was more than 100 µM in each case. The TGI in assay [7] and in [8] was more than 100 µM each time.

In the case of `O=C(Nc1cccc(Cl)c1)c1cc2cc(N=Nc3ccc(Br)cc3)ccc2oc1=O`, the TGI is 88.7 µM in [1]; 52.9 µM in assay [2]; 58 µM in [3]; more than 100 µM in assay [9]; more than 100 µM in assay [4]; 52.7 µM in assay [5]. Further, the TGI in assay [6] and in assay [8] was more than 100 µM throughout.

In the case of `O=C1c2ccccc2CC1C1(O)C(=O)Nc2c(Cl)cc(Cl)cc21` (stereo not given), the TGI in [1], in [2], in assay [3], in assay [9], in assay [4] and in assay [5] was more than 100 µM throughout. The TGI in [6] and in assay [8] was more than 100 µM in each case.

As for `COc1ccc(/C=C(\NC(=O)c2ccccc2)c2nc3ccccc3[nH]2)cc1`, the TGI in [1] is more than 100 µM; in [2], more than 100 µM; in assay [3], 84.5 µM; in assay [9], more than 100 µM; in assay [4], 69.9 µM; in assay [5], 48.4 µM. The TGI was determined as 29 µM in [6], 89.8 µM in assay [7] and 74.5 µM in assay [8].

Regarding `COCC(O)CN1C(N)=NC(O)C1O` (stereo not given), the TGI in assay [1], in [2], in [3], in assay [9], in assay [5] and in [6] was more than 100 µM throughout. The TGI in [7] and in assay [8] was more than 100 µM in each case.
